Experimental data as given in ChEMBL document CHEMBL1201862, “PubChem BioAssay data set” (2004).
The source made the active and inactive calls.

Key:
Type in all cases: functional
[1] = target: T1, High affinity choline transporter 1 (Homo sapiens, UniProt Q9GZV3); experiment: human choline transporter radiolabel uptake blockers – cell-based, 3H-choline uptake, CHT LV-AA trafficking mutant, CRC, dose response (AID 602208)
T1 sequence (Q9GZV3 whole entry): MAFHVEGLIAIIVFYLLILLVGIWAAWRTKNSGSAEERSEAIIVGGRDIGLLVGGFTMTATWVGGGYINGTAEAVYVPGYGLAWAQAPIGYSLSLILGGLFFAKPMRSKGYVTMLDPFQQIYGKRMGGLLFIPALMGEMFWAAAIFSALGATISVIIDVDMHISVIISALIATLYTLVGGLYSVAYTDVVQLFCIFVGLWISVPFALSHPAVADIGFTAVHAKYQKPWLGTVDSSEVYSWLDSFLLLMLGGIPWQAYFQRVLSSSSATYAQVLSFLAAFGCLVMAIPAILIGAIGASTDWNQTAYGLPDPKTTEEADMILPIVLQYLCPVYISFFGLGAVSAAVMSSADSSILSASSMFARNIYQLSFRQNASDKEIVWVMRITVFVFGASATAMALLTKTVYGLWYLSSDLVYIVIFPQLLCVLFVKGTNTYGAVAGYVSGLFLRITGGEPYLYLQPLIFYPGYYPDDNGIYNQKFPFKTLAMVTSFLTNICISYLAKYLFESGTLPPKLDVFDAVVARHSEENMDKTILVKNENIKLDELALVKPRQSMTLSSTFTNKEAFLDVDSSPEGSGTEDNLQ

[2] = target: T1, High affinity choline transporter 1; experiment: human choline transporter blockers, potency – cell-based, 5-point CRC, membrane potential dye, dose response (AID 504840)
[3] = target: T1, High affinity choline transporter 1; experiment: human choline transporter blockers, potency – cell-based, 10-point CRC, membrane potential dye, dose response (AID 588401);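 also: membrane potential dye fluorescence of choline-evoked depolarization via CHT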

Measured: IC50

COc1ccc(C(=O)NCc2nc(C)c(C)s2)cc1OC1CCN(C(C)C)CC1
active: [1] 303 nM | [2] 1320 nM | [3] 761 nM
